According to US20250090573A1, “COMPOSITIONS FOR DELIVERING NITRIC OXIDE AND FLUORIDE AND METHODS FOR MAKING AND USING THE SAME” (University of Georgia Research Foundation, Inc., priority 2022, published 2025):

What was measured:
HGF = format: cell-based; conditions: human, 24 h
Experimental: (§1) The cell lines HGF and hFOB 1.19 were cultured for cytocompatibility assessments. HGF cells were cultured in fibroblast basal medium supplemented with the manufacturer's recommended growth kit (2% fetal bovine serum, 50 μg/mL ascorbic acid, 5 μg/mL rh insulin, […] hydrocortisone hemisuccinate, 5 ng/mL rh FGF b, and 7.5 mM L-glutamine) and penicillin-streptomycin (10 units/mL and 10 μg/mL, respectively). hFOB 1.19 cells were maintained in a 1:1 mixture of Ham's F12 Medium and Dulbecco's Modified Eagle's Medium supplemented with L-glutamine (2.5 mM), fetal bovine serum (10%) and G418 (0.3 mg/mL). Both cell types were incubated at 37° C. in a 5% CO2 humified atmosphere. Medium was replaced every 48 h and both cell lines were subcultured once monolayers were 80% confluent. Cells were detached from the flask surface via enzymatic treatment with 0.05% trypsin and 5 mM EDTA for 5 min, with isolation of cell pellets via centrifugation at 200 RCF for 5 min.
(§2) The cellular cytotoxicity of GSNO against HGF and hFOB 1.19 cells was tested over 24 h direct contact experiments. […] A separate set of wells containing only media and the dye (n=5) were also prepared to account for background readings. The absorbance of each well was measured at 450 nm, adjusted against the average absorbance reading of the wells with only media. […]

hFOB 1.19 = test: Cellular cytotoxicity of GSNO and precursor sol materials (CCK-8); format: cell-based, human; conditions: hFOB 1.19 cells, direct contact exposure
Experimental: as §1, §2

[1] = GSNO/NO loading by chemiluminescence NO analyzer (Cu1+ depletion); format: physicochemical; conditions: hydrogel precursor sol, aqueous with cosolvent or surfactant or cyclodextrin; read-out: GSNO sol concentration after which solubility is incomplete

Compound: N[C@@H](CCC(=O)N[C@@H](CSN=O)C(=O)NCC(=O)O)C(=O)O [GSNO, S-Nitrosoglutathione]
- GSNO treatment eliciting cytotoxic response (HGF): greater than 100 μg/mL
- GSNO treatment eliciting cytotoxic response (hFOB 1.19): ~400 µg/mL
- solubility [1]: ≤ 30 mg/mL
